Measurements reported in patent publication US5834461A, “Tricyclic benzazepine vasopressin antagonists” (American Cyanamid Company, priority 1997, dated 1998).

How the values were obtained:
[1] = biological target: T1, rat kidney medullary V2 receptors (Rattus norvegicus, UniProt Q00788); assay: Binding Assay to Rat Kidney Medullary V2 Receptors; details: for IC50: rat kidney medullary V2
T1 construct: Medullary tissues from rat kidneys are dissected out; from tissue; host or cells: rat kidney medulla membranes
T1 sequence (Q00788 whole entry): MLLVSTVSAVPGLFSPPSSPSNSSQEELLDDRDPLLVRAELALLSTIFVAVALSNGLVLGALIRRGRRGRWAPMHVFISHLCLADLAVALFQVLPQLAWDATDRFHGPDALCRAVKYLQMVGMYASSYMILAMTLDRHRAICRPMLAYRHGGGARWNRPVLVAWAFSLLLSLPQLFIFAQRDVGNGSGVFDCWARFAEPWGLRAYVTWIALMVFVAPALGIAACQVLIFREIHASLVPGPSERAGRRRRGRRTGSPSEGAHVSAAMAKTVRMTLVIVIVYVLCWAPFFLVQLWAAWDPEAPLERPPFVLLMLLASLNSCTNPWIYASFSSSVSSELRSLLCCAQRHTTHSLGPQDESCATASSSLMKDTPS
How it was run: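 Competition binding: [3H]AVP at 0.8 nM, test compounds from 50% DMSO, and membranes from rat kidney medulla, left 120 min on the bench. Filtration then liquid scintillation counting measured bound ligand; 1.0 μM unlabeled ligand set non-specific binding.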

vasopressin V2 = assay: Vasopressin V2 Antagonist Activity in Conscious Hydrated Rats (diuretic effect); type: in vivo, normal Sprague-Dawley rats; details: AVP 0.4 μg/kg i.p.
How it was run: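 Conscious rats were dosed orally at 0.1–100 mg/kg, and AVP 0.4 μg/kg i.p. in peanut oil followed 1 h later. Urine volume, osmolality and Na/K/Cl were compared against AVP-treated controls, with non-AVP rats as water-loading controls.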

vasopressin V1 = assay: Vasopressin V1 Antagonist Activity in Conscious Rats (vasopressin vasopressor response); type: in vivo, rat (spontaneously hypertensive rats)
How it was run: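 Conscious rats had the ventral caudal tail artery cannulated into the lower abdominal aorta under local procaine anesthesia, plus a caudal vein cannula for intravenous dosing. Pulsatile blood pressure was recorded via a Statham P23Db transducer. Vasopressor responses to vasopressin injections were measured before and after compound dosing, with percent antagonism calculated relative to the pre-drug response taken as 100%.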

inhibition at 10 µM ([1]; 10 μM, rat kidney, read-out: V2, % at concentration in brackets) [%] | IC50 [1] [nM] | SMILES | Osmolality (vasopressin V2; 10 mg/kg orally) [mOsm/kg] | Urine Volume (vasopressin V2; 10 mg/kg orally) [ml/4 hrs.] | MAX % Inhibition (vasopressin V1; 30 mg/kg i.v.) [%] | Time of max % inhibition (vasopressin V1; 30 mg/kg i.v.) [min] | MAX % Inhibition (vasopressin V1; 10 mg/kg i.v.) [%] | Time of max % inhibition (vasopressin V1; 10 mg/kg i.v.) [min] | Osmolality (vasopressin V2; 20 mg/kg orally) [mOsm/kg] | Urine Volume (vasopressin V2; 20 mg/kg orally) [ml/4 hrs.]
13 |  | Cc1cc(C(=O)N2Cc3ccccc3Cc3ccccc32)cc(C)c1NC(=O)c1ccc(Cl)cc1Cl [Example 259, N-[4-[(6,11-Dihydro-5H-dibenz[b,e]azepin-5-yl)-carbonyl]-2,6-dimethylphenyl]-2 4-dichlorobenzamide] | 1080 | 6 | 29 | 90 |  |  |  | 
 | 82 | Cc1ccccc1C(=O)N(CN(C)C)c1ccc(C(=O)N2Cc3ccccc3Cc3ccccc32)cc1 [Example 267, N-[4-[(6,11-Dihydro-5H-dibenz[b,e]azepin-5-yl)-carbonyl]phenyl]-N-[(dimethylamino)methyl]-2-methylbenzamide] | 517 | 7.5 |  |  | 74 | 120 |  | 
 | 65 | Cc1ccccc1C(=O)Nc1ccc(C(=O)N2Cc3ccccc3Cc3ccccc32)c(Cl)c1 [Example 260, N-[4-[(6,11-Dihydro-5H-dibenz[b,e]azepin-5-yl)-carbonyl]-3-chlorophenyl]-2-methylbenzamide] | 498 ± 25 | 13.8 ± 2.1 | 79 | 120 |  |  |  | 
 | 53 | Cc1ccccc1C(=O)Nc1ccc(C(=O)N2CCc3cn(C)nc3-c3ccccc32)cc1 [Example 379, N-[4-[(4,5-Dihydro-2-methylpyrazolo[4,3-d][1]-benzazepin-6(2H)-yl)carbonyl]phenyl]-2-methylbenzamide] |  |  |  |  | 75 | 300 | 483 | 7
 | 1100 | Cc1ncc2c(n1)-c1ccccc1N(C(=O)c1ccc(NC(=O)c3ccccc3C)cc1)CC2 [Example 416, N-[4-[(6,7-Dihydro-2-methyl-5H-pyrimido[5,4-d][1]-benzazepin-7-yl)carbonyl]phenyl]-2-methylbenzamide] | 1156 | 4.3 | 44 | 90 |  |  |  | 
